Assay results as given in patent publication US6620985B1, “PAD4 nucleic acid compositions from Arabidopsis and methods therefor” (University of Maryland Biotechnology Institute, priority 1998, dated 2003).

Legend:
PAD4 mRNA = assay: PAD4 RNA blot analysis after SA treatment; format: in vivo, Arabidopsis thaliana; details: 5 mM SA
Source text: Inoculations with Bacteria and Treatment with Chemicals. Pseudomonas syringae pv maculicola (Psm) ES4326 (Dong et al., 1991, Plant Cell 3, 61-72; Crute et al., 1994, in Arabidopsis, eds. Meyerowitz & Somerville, Cold Spring Harbor Press, NY, pp. 705-747), Pseudomonas. syringae pv tomato (Pst) DC3000 (Cuppels, 1986, Appl. Environ. Microbiol. 52, 323-327) and Xanthomonas campestris pv campestris (Xcc) BP109 (Weiss et al., 1994, J. Bacteriol. 176, 3354-3359) have been described. The avirulence gene avrRpt2 was carried on plasmid pLH12 as described (Dong et al., 1991, Plant Cell 3, 61-72; Whalen et al., 1991, Plant Cell 3, 49-59). P. syringae strains were grown in King's B medium supplemented with appropriate antibiotics (Glazebrook and Ausubel, 1994, Proc. Natl. Acad. Sci. USA 91, 8955-8959), and Xcc BP1 09 was grown in Luria-Bertani medium supplemented with 50 μg/mL rifampicin. Bacteria were infiltrated into Arabidopsis plants as described (Glazebrook and Ausubel, 1994, PNAS USA 91, 8955-8959; Glazebrook et al., 1996, Genetics 146: 381-392). For camalexin assays, the bacterial dose for P. syringae strains was 3×10^4 colony-forming units (cfu)/cm^2 leaf area (equivalent to OD600=0.006); for Xcc BP109 it was 5×10^5 cfu/cm^2 (OD600=0.1). For experiments involving extraction of total RNA from infected leaves, Psm ES4326 and Psm ES4326 carrying avrRpt2 were introduced at a dose of 10^4 cfu/cm^2 leaf area (equivalent to OD600=0.002). For determination of Psm ES4326 growth, plants were infected with Psm ES4326 at a dose of 10^3 cfu/cm^2 leaf area (equivalent to OD600=0.0002). After […] were excised and bacterial growth was assayed as described (Glazebrook et al., 1996, Genetics 143, 973-982). Data are reported as means and standard deviations of the log(cfu/cm^2) of six replicates. For chemical treatment, plants were sprayed with 5 mM SA or 5 mM silver nitrate with 0.02% Silwet L-77 (Lehle Seeds, Tucson, Ariz.) to reduce surface tension. Control plants were sprayed with water containing 0.02% Silwet L-77.
PAD4 RNA Blot Analysis. […]

Psm ES4326 = Psm ES4326 growth in plants sprayed with SA; format: in vivo, Pseudomonas syringae pv maculicola; details: 5 mM SA sprayed one day before infection; titer three days after infection; wild-type and pad4-1
Source text: (§1) Inoculations with Bacteria and Treatment with Chemicals. Pseudomonas syringae pv maculicola (Psm) ES4326 (Dong et al., 1991, Plant Cell 3, 61-72; Crute et al., 1994, in Arabidopsis, eds. Meyerowitz & Somerville, Cold Spring Harbor Press, NY, pp. 705-747), Pseudomonas. syringae pv tomato (Pst) DC3000 (Cuppels, 1986, Appl. Environ. Microbiol. 52, 323-327) and Xanthomonas campestris pv campestris (Xcc) BP109 (Weiss et al., 1994, J. Bacteriol. 176, 3354-3359) have been described. The avirulence gene avrRpt2 was carried on plasmid pLH12 as described (Dong et al., 1991, Plant Cell 3, 61-72; Whalen et al., 1991, Plant Cell 3, 49-59). P. syringae strains were grown in King's B medium supplemented with appropriate antibiotics (Glazebrook and Ausubel, 1994, Proc. Natl. Acad. Sci. USA 91, 8955-8959), and Xcc BP1 09 was grown in Luria-Bertani medium supplemented with 50 μg/mL rifampicin. Bacteria were infiltrated into Arabidopsis plants as described (Glazebrook and Ausubel, 1994, PNAS USA 91, 8955-8959; Glazebrook et al., 1996, Genetics 146: 381-392). For camalexin assays, the bacterial dose for P. syringae strains was 3×10^4 colony-forming units (cfu)/cm^2 leaf area (equivalent to OD600=0.006); for Xcc BP109 it was 5×10^5 cfu/cm^2 (OD600=0.1). […]

camalexin synthesis = assay: Camalexin assay in Psm ES4326-infected leaves; format: in vivo, Arabidopsis thaliana; details: SA sprayed one day before Psm ES4326 infection, assayed two days after infection
Source text: as §1
Phytoalexin Quantitation. […]

PR-1 = PR-1 expression (RNA blot) after SA treatment; format: in vivo, Arabidopsis thaliana
Source text: Plants and Growth Conditions. Wild-type plants (Arabidopsis thaliana ecotype Columbia (Col)) and pad4 plants from a line that had been backcrossed four times to the wild-type parent (Col) (Glazebrook et al., 1996, Genetics 143, 973-982) were used in this study. Arabidopsis ecotype Keswick (Ksk) was provided by Eric Holub (Horticulture Research International, Warwick, UK). Arabidopsis ecotype Landsberg erecta (Ler) plants carrying the nahG transgene were provided by Xinnian Dong (Bowling et al., 1994, Plant Cell 6, 1845-1857). nahG mutant plants used in this example, and all other examples, were of the Ler ecotype. Plants were grown in pots in Metro-Mix 200 soil (Scotts-Sierra Horticultural Products Company, Marysville, Ohio) in a growth chamber (22±2° C., 85% relative humidity, 100 μE s^−1 m^−2 fluorescent illumination) on a 12-hr light/dark cycle. Fully-expanded leaves of four-week old plants were used.
Inoculations with Bacteria and Treatment with Chemicals. Pseudomonas syringae pv maculicola (Psm) ES4326 (Dong et al., 1991, Plant Cell 3, 61-72; Crute et al., 1994, in Arabidopsis, eds. Meyerowitz & Somerville, Cold Spring Harbor Press, NY, pp. 705-747), Pseudomonas. syringae pv tomato (Pst) DC3000 (Cuppels, 1986, Appl. Environ. Microbiol. 52, 323-327) and Xanthomonas campestris pv campestris (Xcc) BP109 (Weiss et al., 1994, J. Bacteriol. 176, 3354-3359) have been described. […]

For `O=C(O)c1ccccc1O` [SA, salicylic acid], the “PAD4 transcript levels in npr1-1 plants” value (PAD4 mRNA; six and twelve hours after treatment) was “undetectable”, the “PAD4 transcript levels in wild-type plants” value (PAD4 mRNA; wild-type (Col), six and twelve hours after treatment) was “markedly detectable” and the “PAD4 mRNA levels” value (PAD4 mRNA; wild-type (Col, Ler), pad4-1, pad4-3, pad4-4 plants) was “increased rapidly after SA treatment”. The “resistance to Psm ES4326 (bacterial titer)” value (Psm ES4326) was “induced comparable levels of resistance to Psm ES4326 in wild-type and pad4-1 plants”, the “camalexin levels in wild-type plants” value (camalexin synthesis) was “little effect on camalexin levels” and the “camalexin levels in pad4-1 plants” value (camalexin synthesis; vs not pretreated) was “much higher camalexin levels”. The “PR-1 mRNA level in pad4-1 plants” value (PR-1; 5 mM SA one day before Psm ES4326 infection, two days after infection) was “comparable to that in wild-type plants” and the “PR-1 expression in response to SA” value (PR-1; plants sprayed with 5 mM SA, wild-type and pad4-1, monitored for several days) was “induced similar levels of PR-1 expression in wild-type and pad4-1 plants”.
